Results on one substance are retold here after patent publication US8614170B2, “Method for treating fracturing water” (Schlumberger Technology Corporation, priority 2008, dated 2013).

Assay [1] concerns planktonic sulfate reducing bacteria. Nature of the assay: Efficacy of metabolic inhibitor for planktonic sulfate reducing bacteria (NACE standard TMO194-94 test method). It is filed as cell-based. To be noted: planktonic SRB, field mix water samples at 85 deg F. (29.4 deg C.), FIG. 1. The protocol:
(§1) Efficacy of metabolic inhibitor for sulfate reducing bacteria was tested. NACE standard TMO194-94 test method was employed for testing the presence of general heterotrophic bacteria (GHB), acid producing bacteria (APB), and sulphate reducing bacteria (SRB) in field mix water samples at 85 deg F. (29.4 deg C.) containing different metabolic inhibitors and microbiocides: 100 ppm active or 200 ppm of calcium nitration solution and 125 ppm active glut or 500 ppm glut solution were used. In a first example, shown in FIG. 1, efficacy of metabolic inhibitor for planktonic sulfate reducing bacteria is tested. In a second example, shown in FIG. 2, efficacy of metabolic inhibitor for sessile sulfate reducing bacteria is tested.

The subject of assay [2] is sessile sulfate reducing bacteria. The experiment in a line: Efficacy of metabolic inhibitor for sessile sulfate reducing bacteria (NACE standard TMO194-94 test method). It is filed as cell-based, sulfate reducing bacteria (SRB). Here is the method:
as §1

As to “calcium nitration solution [metabolic inhibitor]”, the “efficacy against sulfate reducing bacteria” value in assay [1] is reported as “kill and/or inhibit the growth”; in assay [2] (sessile SRB, field mix water samples at 85 deg F. (29.4 deg C.), FIG. 2), “kill and/or inhibit the growth”. In addition, the “impact on sessile versus planktonic population” value in assay [2] (maximum effect after 28 days) is listed as “greater impact on the sessile bacteria population than the planktonic population”.
